Reference: patent publication US20250352464A1, “TOPICAL COMPOSITIONS AND METHODS FOR TREATING DERMATOPOROSIS” (GALDERMA HOLDING SA, priority 2023, published 2025)

Columns and labels:
human keratinocytes = experiment: in vitro gene expression analysis (RNA sequencing) in keratinocytes; assay type: cell-based; details: 72 hrs, mandelic acid 0.05%
Source text: Genes were annotated using the Reactome Database.

[1] = test system: human primary adult dermal fibroblasts and human primary adult dermal keratinocytes; details: 24 h
Description: To determine suitable dosing of Centella asiatica extract and mandelic acid, human primary adult dermal fibroblasts and human primary adult dermal keratinocytes were purchased from ZenBio (https://www.zen-bio.com/, Durham, NC) and plated as per the provided ZenBio protocols in the recommended media from ZenBio.
Approximately 10k cells were plated per well in each well of a 96-well plate. […] Centella asiatica extract concentrations ranged from 0.00025% to 0.25%, in 2× steps. […] After 24 hours of treatment, an alamar blue assay was performed. The plate was then read in an Envision plate reader with 560 nm excitation and 590 nm emission filters to determine cell viability.

[2] = human keratinocytes grown to confluence, Centella asiatica extract 0.005%, combination same concentrations, vs untreated cells

## O=C(O)C(O)c1ccccc1 (stereo not drawn) [Mandelic Acid, mandelic acid]
Human keratinocytes; [2]
  Modulation of Gene Expression (Fold Change): CEBPB: −2.45 Fold Change
  Modulation of Gene Expression (Fold Change): HIST1H2BD: 0.55 Fold Change
  Modulation of Gene Expression (Fold Change): HIST1H2BG: 0.45 Fold Change
  Modulation of Gene Expression (Fold Change): HIST1H3D: −0.23 Fold Change
  Modulation of Gene Expression (Fold Change): HIST1H4E: 0.60 Fold Change
  Modulation of Gene Expression (Fold Change): HIST1H4H: −0.54 Fold Change
  Modulation of Gene Expression (Fold Change): IL1B: 1.73 Fold Change
  Modulation of Gene Expression (Fold Change): IL8: −1.46 Fold Change
  Modulation of Gene Expression (Fold Change): TNF: −2.69 Fold Change
  Modulation of Gene Expression (Fold Change): UBB: −3.87 Fold Change
  Modulation of Gene Expression (Fold Change): UBC: −1.09 Fold Change
  Modulation of Gene Expression (Fold Change): UBE2C: 0.51 Fold Change
Human keratinocytes; human keratinocytes, Centella 0.005%, FIG. 5
  expression of p15 (CDKN2B): upregulate
Human keratinocytes; human keratinocytes, Centella 0.005%, FIGS. 4A-4G
  pro-inflammatory gene expression (MMP2, HSPA8, CSF2RA, CXCL1, IL2RB, NFKBIA, PTG52): significantly downregulated
[1]
  highest concentration not resulting in cytotoxicity: 0.05%
